Drawing on PubChem BioAssay (NCI), this text covers TGI and GI50 for 13 compounds.

Among the test systems are SK-OV-3 ovarian; CAKI-1 renal; HOP-62 NSCLC; SW-620 colon; SN12C renal; MALME-3M melanoma; OVCAR-8 ovarian; RPMI-8226 leukemia; HCT-116 colon.
What all share (assay): NCI tumour cell line growth inhibition, 48 h

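Exposure lasted 48 hours, with cells grown in 96-well plates and compounds tested at five concentrations. GI50 = concentration required for 50% inhibition of growth. Definition used: TGI = concentration required for complete inhibition of growth.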

On to `COc1ccc(N2C(=O)C3c4[nH]c5ccccc5c4C4CCCCC4C3C2=O)cc1` (centres undefined), for which the TGI is 52.7 µM with SK-OV-3 ovarian; greater than 100 µM in the experiment with CAKI-1 renal; 35.8 µM with HOP-62 NSCLC; greater than 100 µM with SW-620 colon; greater than 100 µM in the experiment with SN12C renal; 25.8 µM in the experiment on MALME-3M melanoma. The results for the TGI in the experiment with OVCAR-8 ovarian, in the experiment on RPMI-8226 leukemia and in the experiment with HCT-116 colon were 28.6 µM, greater than 100 µM and 22 µM, respectively.
On to `O=S1Nc2c(Cl)cc(Cl)c(Cl)c2S1` (centres undefined), for which the TGI with SK-OV-3 ovarian is greater than 100 µM; in the experiment with CAKI-1 renal, greater than 100 µM; in the experiment with HOP-62 NSCLC, greater than 100 µM; with SW-620 colon, 21.1 µM; with SN12C renal it was greater than 100 µM; with MALME-3M melanoma, greater than 100 µM. Also, the TGI in the experiment on OVCAR-8 ovarian, with RPMI-8226 leukemia and in the experiment on HCT-116 colon was greater than 100 µM throughout.
Consider `N#CCC(=O)N1CCCCCCC1`, for which the TGI is greater than 100 µM with SK-OV-3 ovarian; greater than 100 µM in the experiment on CAKI-1 renal; greater than 100 µM in the experiment with HOP-62 NSCLC; 21.3 µM in the experiment with SW-620 colon; greater than 100 µM in the experiment on SN12C renal; greater than 100 µM in the experiment on MALME-3M melanoma. This compound also yielded a TGI with HCT-116 colon greater than 100 µM.
`CCN(CC)CC(=N)N(CC)c1ccccc1`: the TGI with SK-OV-3 ovarian, with CAKI-1 renal, with HOP-62 NSCLC, in the experiment with SW-620 colon, in the experiment with SN12C renal and in the experiment on MALME-3M melanoma was greater than 100 µM each time. Also, the TGI in the experiment with OVCAR-8 ovarian, in the experiment on RPMI-8226 leukemia and with HCT-116 colon was greater than 100 µM each time.
Consider `Cn1c(=O)c2/c(n(C)c1=O)=N\C=c1\c(=O)n(C)c(=O)n(C)\c1=N\C=2`, for which the TGI in the experiment with CAKI-1 renal, with HOP-62 NSCLC, in the experiment with SW-620 colon, in the experiment with SN12C renal, in the experiment on MALME-3M melanoma and in the experiment with OVCAR-8 ovarian was greater than 100 µM throughout. In the experiment on HCT-116 colon, this compound displayed a TGI greater than 100 µM.
For `O=C1CSc2cc([N+](=O)[O-])ccc2N1`, the TGI in the experiment with SK-OV-3 ovarian, in the experiment with CAKI-1 renal, in the experiment on HOP-62 NSCLC, in the experiment on SW-620 colon, with SN12C renal and with MALME-3M melanoma was greater than 100 µM in each case. The TGI with OVCAR-8 ovarian and with HCT-116 colon was greater than 100 µM in each case.
For the compound `CC1(C)N=C(c2ccccn2)C(c2ccccn2)=NC1(C)C`, the TGI in the experiment with CAKI-1 renal, in the experiment with SW-620 colon, with SN12C renal, with MALME-3M melanoma, in the experiment with OVCAR-8 ovarian and in the experiment on RPMI-8226 leukemia was greater than 100 µM throughout. The compound further registered a TGI in the experiment with HCT-116 colon greater than 100 µM.
On to `NC(CSSCC(N)Cc1ccccc1)Cc1ccccc1` (centres undefined), for which the TGI in the experiment with SK-OV-3 ovarian, with HOP-62 NSCLC, in the experiment with SW-620 colon, in the experiment on SN12C renal, with MALME-3M melanoma and in the experiment with OVCAR-8 ovarian was greater than 100 µM each time. Besides, the TGI in the experiment on RPMI-8226 leukemia and with HCT-116 colon was greater than 100 µM in each case.
`C/C=N\N1C(=O)c2ccccc2C1=O`: the TGI with CAKI-1 renal, in the experiment with HOP-62 NSCLC, in the experiment with SW-620 colon, with SN12C renal, with MALME-3M melanoma and in the experiment on OVCAR-8 ovarian was greater than 100 µM throughout. The TGI in the experiment on RPMI-8226 leukemia and with HCT-116 colon was greater than 100 µM throughout.
Take `O=c1oc2ccccc2c(O)c1C(C/C(CCN1CCCC1)=N\Nc1ccccc1)c1ccccc1` (centres undefined): the TGI in the experiment on SK-OV-3 ovarian, with CAKI-1 renal, with HOP-62 NSCLC, in the experiment with SW-620 colon, in the experiment with SN12C renal and in the experiment on MALME-3M melanoma was greater than 100 µM in each case. For the same compound, the TGI with OVCAR-8 ovarian was greater than 100 µM; in the experiment with RPMI-8226 leukemia it was 77.7 µM; in the experiment with HCT-116 colon, greater than 100 µM.
Turning to `O=C(/C=C\c1cccc2ccccc12)c1cccc2ccccc12`, the TGI in the experiment on CAKI-1 renal was 32.4 µM; with HOP-62 NSCLC it was 39.7 µM; in the experiment on SW-620 colon it was 10.6 µM; with SN12C renal it was greater than 100 µM; with MALME-3M melanoma, 36.1 µM; with OVCAR-8 ovarian, 6.01 µM. The figures for the TGI with RPMI-8226 leukemia and in the experiment on HCT-116 colon were greater than 100 µM and 13.4 µM, respectively. For the same compound, the GI50 in the experiment with SW-620 colon was 2700 nM; in the experiment on OVCAR-8 ovarian, 2610 nM; in the experiment on RPMI-8226 leukemia, 2680 nM; in the experiment on HCT-116 colon, 3.36 µM.
For the compound `O=C1c2ccccc2C(=O)c2[nH]c(Cc3ccc(F)cc3)nc21`, the TGI in the experiment with CAKI-1 renal is 50.2 µM; with HOP-62 NSCLC, 44.3 µM; in the experiment on SW-620 colon it was 38.3 µM; with SN12C renal, 51.3 µM; with MALME-3M melanoma, 29.6 µM; in the experiment on OVCAR-8 ovarian, 35.3 µM. Besides, the TGI was found to be 95.8 µM in the experiment with RPMI-8226 leukemia and 42.3 µM in the experiment on HCT-116 colon.
As to `CCCC(=O)[O-].N.N.N.N.N.[Co+3].[O-][Cl+3]([O-])([O-])[O-]`, the TGI in the experiment on SK-OV-3 ovarian, in the experiment on HOP-62 NSCLC, in the experiment with SW-620 colon, in the experiment with SN12C renal, in the experiment on MALME-3M melanoma and with OVCAR-8 ovarian was greater than 100 µM throughout. Besides, the TGI in the experiment on RPMI-8226 leukemia and in the experiment on HCT-116 colon was greater than 100 µM in each case.
